Results: patent US7144893B2, “4-aryl quinols and analogs thereof as therapeutic agents” (Cancer Research Technology Limited, priority 2001, dated 2006)
Values after ≈ are worked out from the molar mass of the structure shown.

How the values were obtained:
RXF 631L = assay: In vitro propidium iodide cytotoxicity assay; type: cell-based, human; conditions: mean ± S.D.
Method: (§1) This assay was performed essentially according to the method described by Dengler et al., 1995. Human tumor cells (see Table 2) were plated in 96 well flat-bottomed microtiter plates (50 μL cell suspension, 1×10^5 or 5×10^4 cells/mL) and additional 50 μL of culture medium were added. After a 24 hr recovery, 50 μL of culture medium containing 50 μg/mL gentamycin was added into the 6 control wells or medium containing the test drug ([…]) was added to the wells. Each drug concentration was plated in triplicate. Following 3-6 days of incubation, depending on cell doubling time, a modified propidium iodide (PI) assay was performed. Culture medium was replaced by fresh medium and 50 μL of an aqueous propidium iodide solution (25 μg/mL) were added to each well. […] The fluorescence signal correlates with the numbers of dead cells. Fluorescence (FU1) was measured using a Millipore Cytofluor 2350 microplate reader (excitation 530 nm, emission 620 nm). Microplates were then kept at -18° C. for 24 hr, yielding a total cell kill. After thawing of the plates and a second fluorescence measurement (FU2), the amount of viable cells was calculated by subtraction of […]). Growth inhibition was expressed as treated/control ×100 (% T/C) (that is, growth inhibition at a given concentration is represented as a percentage of treated cell growth over control cell growth). Inhibiting concentrations (IC) were determined by plotting compound concentration versus cell viability. Mean IC50, IC70, and IC90 values were calculated for each individual cell line.

RXF 944L = assay: In vitro propidium iodide cytotoxicity assay; type: cell-based, human; conditions: mean ± S.D.
Method: as §1

RXF 393NL = assay: In vitro propidium iodide cytotoxicity assay; type: cell-based, human; conditions: mean ± S.D.
Method: as §1

[1] = tested on: human renal tumor xenograft RXF 393; assay: In vivo antitumor activity, renal tumor xenograft; conditions: for DT (tumor doubling time) / T/C (optimal test/control): days 1, 5; for GD (growth delay): days 1, 5, difference in days to double initial tumor volume; for BWC (maximal body weight change): days 1, 5, model induces cachexia
[2] = tested on: MCF-7 wt and MCF-7/adr (breast cancer); assay: Potency in MCF-7 wt and MCF-7/adr; type: cell-based
[3] = tested on: MCF-7 (wt p53) and MDS 468 (mut p53) (breast cancer); assay: Potency in MCF-7 (wt p53) and MDS 468 (mut p53); type: cell-based

SMILES: O=C1C=CC(O)(c2nc3ccccc3s2)C=C1 [Q05, 4-(Benzothiazol-2-yl)-4-hydroxy-2,5-cyclohexadien-1-one]
- IC50 (RXF 631L; Homo sapiens): 0.37 µg/mL (≈ 1.52 µM)
- IC90 (RXF 631L; Homo sapiens): 0.84 µg/mL (≈ 3.45 µM)
- Mean IC70 (RXF 631L): 0.56 N.E. μg/mL
- IC50 (RXF 944L; Homo sapiens): 0.265 ± 0.06 µg/mL (≈ 1.09 µM)
- IC90 (RXF 944L; Homo sapiens): 0.87 ± 0.09 µg/mL (≈ 3.58 µM)
- Mean IC70 (RXF 944L): 0.48 ± 0.08 µg/mL
- IC50 (RXF 393NL; Homo sapiens): 0.34 ± 0.03 µg/mL (≈ 1.4 µM)
- IC90 (RXF 393NL; Homo sapiens): 8.63 ± 5.4 µg/mL (≈ 35.5 µM)
- Mean IC70 (RXF 393NL): 0.67 ± 0.09 µg/mL
- DT (tumor doubling time) ([1]; 10 mg/kg i.p.): 3.0
- T/C (optimal test/control) ([1]; 10 mg/kg i.p.): 63
- GD (growth delay) ([1]; 10 mg/kg i.p.): 0.9
- BWC (maximal body weight change) ([1]; 10 mg/kg i.p.): −16
- DT (tumor doubling time) ([1]; 15 mg/kg i.p.): 2.6
- T/C (optimal test/control) ([1]; 15 mg/kg i.p.): 56
- GD (growth delay) ([1]; 15 mg/kg i.p.): 0.5
- BWC (maximal body weight change) ([1]; 15 mg/kg i.p.): −19
- relative potency MCF-7 wt and MCF-7/adr [2]: equi-potent
- relative potency MCF-7 (wt p53) and MDS 468 (mut p53) [3]: equi-potent
